Active and inactive are the calls of the source. The rule behind the calls is not given here.
Assays:
[1] = Agonist activity at recombinant rat GluN1a/GluN2C receptor expressed in Xenopus laevis oocytes assessed as increase in glycine/glutamate-induced channel current at -40 mV holding potential by two-electrode voltage clamp method; assay type: cell-based, Oocyte
[2] = Agonist activity at recombinant rat GluN1a/GluN2D receptor expressed in Xenopus laevis oocytes assessed as increase in glycine/glutamate-induced channel current at -40 mV holding potential by two-electrode voltage clamp method relative to control; assay type: cell-based, Oocyte; details: for Emax: Rattus norvegicus, Oocyte, read-out: Efficacy
[3] = Agonist activity at recombinant rat GluN1a/GluN2B receptor expressed in Xenopus laevis oocytes assessed as increase in glycine/glutamate-induced channel current at -40 mV holding potential by two-electrode voltage clamp method; assay type: cell-based, Oocyte
[4] = Agonist activity at recombinant rat GluN1a/GluN2D receptor expressed in Xenopus laevis oocytes assessed as increase in glycine/glutamate-induced channel current at -40 mV holding potential by two-electrode voltage clamp method; assay type: cell-based, Oocyte
Oocyte [5] = assay: Agonist activity at recombinant rat GluN1a/GluN2A receptor expressed in Xenopus laevis oocytes assessed as increase in glycine/glutamate-induced channel current at -40 mV holding potential by two-electrode voltage clamp method relative to glutamate; assay type: cell-based
[6] = Agonist activity at recombinant rat GluN1a/GluN2B receptor expressed in Xenopus laevis oocytes assessed as increase in glycine/glutamate-induced channel current at -40 mV holding potential by two-electrode voltage clamp method relative to control; assay type: cell-based, Oocyte; details: for Emax: Rattus norvegicus, Oocyte, read-out: Efficacy
[7] = Agonist activity at recombinant rat GluN1a/GluN2A receptor expressed in Xenopus laevis oocytes assessed as increase in glycine/glutamate-induced channel current at -40 mV holding potential by two-electrode voltage clamp method; assay type: cell-based, Oocyte
Oocyte [8] = assay: Agonist activity at recombinant rat GluN1a/GluN2C receptor expressed in Xenopus laevis oocytes assessed as increase in glycine/glutamate-induced channel current at -40 mV holding potential by two-electrode voltage clamp method relative to control; assay type: cell-based
[9] = Rattus norvegicus, Oocyte, read-out: EC50

Compound	EC50 [1, 9] [nM]	Emax [2] [%]	EC50 [3, 9] [nM]	EC50 [4, 9] [nM]	Efficacy (Oocyte [5]; filed as agonist) [%]	Emax [6] [%]	EC50 [7, 9] [nM]	Efficacy (Oocyte [8]; filed as agonist) [%]	EC50 ([1]; oocyte)	Efficacy ([2]; rat, oocyte)	EC50 ([3]; oocyte)	EC50 ([4]; oocyte)	Efficacy (Oocyte [5])	Efficacy ([6]; rat, oocyte)	EC50 ([7]; oocyte)	Efficacy (Oocyte [8])
C[C@]1(C(=O)O)C[C@H]1[C@H](N)C(=O)O	110	111	80	30	99	123	260	90	–	–	–	–	–	–	–	–
C=CCOC[C@]1(C(=O)O)C[C@H]1[C@H](N)C(=O)O	2600	98.7	1500	700	73.9	111	3700	84.9	–	–	–	–	–	–	–	–
[N-]=[N+]=NC[C@]1(C(=O)O)C[C@H]1[C@H](N)C(=O)O	2700	76.9	900	400	81.7	92.6	4500	62.7	–	–	–	–	–	–	–	–
N[C@H](C(=O)O)[C@@H]1C[C@]1(CS)C(=O)O	2500	93	1000	300	87	103	4800	86	–	–	–	–	–	–	–	–
N[C@H](C(=O)O)[C@@H]1C[C@]1(COCc1ccccc1)C(=O)O	–	–	–	–	–	–	–	–	Not Active	Not Active	Not Active	Not Active	inactive	Not Active	Not Active	inactive
CCCC[C@]1(C(=O)O)C[C@H]1[C@H](N)C(=O)O	16000	94	10000	3300	65	107	30000	85	–	–	–	–	–	–	–	–
N[C@H](C(=O)O)[C@@H]1C[C@]1(CO)C(=O)O	1900	104	1100	400	91	116	3000	98.2	–	–	–	–	–	–	–	–
